Data from US20070191491A1, “[…] OF STORED GOODS, ENCLOSURES, […] WORKS OF ART, WITH SULPHUR COMPOUNDS” (Arkema France, priority 2002, published 2007).

What was measured:
Sitophilus granarius = experiment: Efficacy of DMDS in a silo of wheat grains infested with Sitophilus granarius (adult mortality, % NER); assay type: in vivo; conditions: for Total No. of insects emerged: untreated control 271
Description: (§1) These two organisms are Sitophilus granarius and Sitophilus orizae.
(§2) Dimensions of the silo: • total height: 40 cm • total volume: 3.3 l • filling level: 75%, that is a grain height of […].
(§3) 99 mg of pure DMDS are deposited at the surface of the grains using a syringe. The samples collected consist of bundles of 50 g of wheat containing all the stages of development of the pathogenic organisms. After degassing by aeration of the silo at the times T, the bundles of wheat are screened and the adults are counted immediately after screening (D+0) and after 14 days (D+14). The wheat containing the other stages of development is then examined for 5 weeks.
The products CT of the concentrations C of DMDS by the times of measurement T are determined and the efficacy of the treatment in relation to the 2 pathogenic organisms studied for all the stages of development is monitored as a function of these products CT. The results are expressed: • as a percentage of the adult mortality at the times (D+0) and (D+14). • as a percentage of net emergence reduction (% NER) relative to an untreated control batch for the different stages of development of these organisms (that is to say eggs and 2nd generation, eggs and 1st stage larvae, 1st and 2nd stage larvae, 2nd and 3rd stage larvae, 3rd and 4th stage larvae, 4th stage larvae and nymphs), which corresponds to the following formula: % NER=(number of insects which emerged live from the control batch−number of insects which emerged live from the treated batch)/(number of insects which emerged live from the control batch).

Sitophilus orizae = experiment: Efficacy of DMDS in a silo of wheat grains infested with Sitophilus orizae; assay type: in vivo; conditions: same trial conditions, 20° C.
Description: as §1, §2, §3
The products CT of the concentrations C of DMDS by the times of measurement T are determined and the efficacy of the treatment in relation to the 2 pathogenic organisms studied for all the stages of development is monitored as a function of these products CT. […]
Under the same trial conditions, this time on organisms of the Sitophilus orizae type, similar results are obtained. The pesticidal efficacy of DMDS against the pathogenic organism Sitophilus orizae is evaluated in terms of the product CT at about 100 ghm^−3 (useful CT).

Compound: CSSC [DMDS, dimethyl disulphide]
- % NER Eggs and 2nd generation (Sitophilus granarius; CT 5.8 gh.m^−3, 20° C.): 13%
- % NER Eggs and Ist stage larvae (Sitophilus granarius; CT 5.8 gh.m^−3, 20° C.): 41%
- % NER IIIrd and IVth stage larvae (Sitophilus granarius; CT 5.8 gh.m^−3, 20° C.): 3%
- % NER IInd and IIIrd stage larvae (Sitophilus granarius; CT 5.8 gh.m^−3, 20° C.): 13%
- % NER IVth stage larvae and nymphs (Sitophilus granarius; CT 5.8 gh.m^−3, 20° C.): 21%
- % NER Ist and IInd stage larvae (Sitophilus granarius; CT 5.8 gh.m^−3, 20° C.): 20%
- % adult mortality D + 0 (Sitophilus granarius; CT 5.8 gh.m^−3, 20° C.): 0%
- % adult mortality D + 14 (Sitophilus granarius; CT 5.8 gh.m^−3, 20° C.): 8%
- Total % NER (Sitophilus granarius; CT 5.8 gh.m^−3, 20° C.): 25%
- Total No. of insects emerged (Sitophilus granarius; CT 5.8 gh.m^−3, 20° C.): 202
- % NER Eggs and 2nd generation (Sitophilus granarius; CT 6.1 gh.m^−3, 20° C.): 33%
- % NER Eggs and Ist stage larvae (Sitophilus granarius; CT 6.1 gh.m^−3, 20° C.): 5%
- % NER IIIrd and IVth stage larvae (Sitophilus granarius; CT 6.1 gh.m^−3, 20° C.): 19%
- % NER IInd and IIIrd stage larvae (Sitophilus granarius; CT 6.1 gh.m^−3, 20° C.): 16%
- % NER IVth stage larvae and nymphs (Sitophilus granarius; CT 6.1 gh.m^−3, 20° C.): 54%
- % NER Ist and IInd stage larvae (Sitophilus granarius; CT 6.1 gh.m^−3, 20° C.): 80%
- % adult mortality D + 0 (Sitophilus granarius; CT 6.1 gh.m^−3, 20° C.): 3%
- % adult mortality D + 14 (Sitophilus granarius; CT 6.1 gh.m^−3, 20° C.): 9%
- Total % NER (Sitophilus granarius; CT 6.1 gh.m^−3, 20° C.): 23%
- Total No. of insects emerged (Sitophilus granarius; CT 6.1 gh.m^−3, 20° C.): 208
- % NER Eggs and 2nd generation (Sitophilus granarius; CT 15.0 gh.m^−3, 20° C.): 25%
- % NER Eggs and Ist stage larvae (Sitophilus granarius; CT 15.0 gh.m^−3, 20° C.): 54%
- % NER IIIrd and IVth stage larvae (Sitophilus granarius; CT 15.0 gh.m^−3, 20° C.): 26%
- % NER IInd and IIIrd stage larvae (Sitophilus granarius; CT 15.0 gh.m^−3, 20° C.): 71%
- % NER IVth stage larvae and nymphs (Sitophilus granarius; CT 15.0 gh.m^−3, 20° C.): 75%
- % NER Ist and IInd stage larvae (Sitophilus granarius; CT 15.0 gh.m^−3, 20° C.): 88%
- % adult mortality D + 0 (Sitophilus granarius; CT 15.0 gh.m^−3, 20° C.): 64%
- % adult mortality D + 14 (Sitophilus granarius; CT 15.0 gh.m^−3, 20° C.): 93%
- Total % NER (Sitophilus granarius; CT 15.0 gh.m^−3, 20° C.): 54%
- Total No. of insects emerged (Sitophilus granarius; CT 15.0 gh.m^−3, 20° C.): 126
- % NER Eggs and 2nd generation (Sitophilus granarius; CT 26.9 gh.m^−3, 20° C.): 20%
- % NER Eggs and Ist stage larvae (Sitophilus granarius; CT 26.9 gh.m^−3, 20° C.): 79%
- % NER IIIrd and IVth stage larvae (Sitophilus granarius; CT 26.9 gh.m^−3, 20° C.): 65%
- % NER IInd and IIIrd stage larvae (Sitophilus granarius; CT 26.9 gh.m^−3, 20° C.): 94%
- % NER IVth stage larvae and nymphs (Sitophilus granarius; CT 26.9 gh.m^−3, 20° C.): 92%
- % NER Ist and IInd stage larvae (Sitophilus granarius; CT 26.9 gh.m^−3, 20° C.): 88%
- % adult mortality D + 0 (Sitophilus granarius; CT 26.9 gh.m^−3, 20° C.): 92%
- % adult mortality D + 14 (Sitophilus granarius; CT 26.9 gh.m^−3, 20° C.): 92%
- Total % NER (Sitophilus granarius; CT 26.9 gh.m^−3, 20° C.): 72%
- Total No. of insects emerged (Sitophilus granarius; CT 26.9 gh.m^−3, 20° C.): 75
- % NER Eggs and 2nd generation (Sitophilus granarius; CT 50.5 gh.m^−3, 20° C.): 93%
- % NER Eggs and Ist stage larvae (Sitophilus granarius; CT 50.5 gh.m^−3, 20° C.): 100%
- % NER IIIrd and IVth stage larvae (Sitophilus granarius; CT 50.5 gh.m^−3, 20° C.): 97%
- % NER IInd and IIIrd stage larvae (Sitophilus granarius; CT 50.5 gh.m^−3, 20° C.): 100%
- % NER IVth stage larvae and nymphs (Sitophilus granarius; CT 50.5 gh.m^−3, 20° C.): 100%
- % NER Ist and IInd stage larvae (Sitophilus granarius; CT 50.5 gh.m^−3, 20° C.): 100%
- % adult mortality D + 0 (Sitophilus granarius; CT 50.5 gh.m^−3, 20° C.): 100%
- % adult mortality D + 14 (Sitophilus granarius; CT 50.5 gh.m^−3, 20° C.): 100%
- Total % NER (Sitophilus granarius; CT 50.5 gh.m^−3, 20° C.): 99%
- Total No. of insects emerged (Sitophilus granarius; CT 50.5 gh.m^−3, 20° C.): 4
- % NER Eggs and 2nd generation (Sitophilus granarius; CT 88.4 gh.m^−3, 20° C.): 95%
- % NER Eggs and Ist stage larvae (Sitophilus granarius; CT 88.4 gh.m^−3, 20° C.): 100%
- % NER IIIrd and IVth stage larvae (Sitophilus granarius; CT 88.4 gh.m^−3, 20° C.): 100%
- % NER IInd and IIIrd stage larvae (Sitophilus granarius; CT 88.4 gh.m^−3, 20° C.): 100%
- % NER IVth stage larvae and nymphs (Sitophilus granarius; CT 88.4 gh.m^−3, 20° C.): 100%
- % NER Ist and IInd stage larvae (Sitophilus granarius; CT 88.4 gh.m^−3, 20° C.): 100%
- % adult mortality D + 0 (Sitophilus granarius; CT 88.4 gh.m^−3, 20° C.): 100%
- % adult mortality D + 14 (Sitophilus granarius; CT 88.4 gh.m^−3, 20° C.): 100%
- Total % NER (Sitophilus granarius; CT 88.4 gh.m^−3, 20° C.): 99%
- Total No. of insects emerged (Sitophilus granarius; CT 88.4 gh.m^−3, 20° C.): 2
- % NER Eggs and 2nd generation (Sitophilus granarius; CT 160.4 gh.m^−3, 20° C.): 100%
- % NER Eggs and Ist stage larvae (Sitophilus granarius; CT 160.4 gh.m^−3, 20° C.): 100%
- % NER IIIrd and IVth stage larvae (Sitophilus granarius; CT 160.4 gh.m^−3, 20° C.): 100%
- % NER IInd and IIIrd stage larvae (Sitophilus granarius; CT 160.4 gh.m^−3, 20° C.): 100%
- % NER IVth stage larvae and nymphs (Sitophilus granarius; CT 160.4 gh.m^−3, 20° C.): 100%
- % NER Ist and IInd stage larvae (Sitophilus granarius; CT 160.4 gh.m^−3, 20° C.): 100%
- % adult mortality D + 0 (Sitophilus granarius; CT 160.4 gh.m^−3, 20° C.): 100%
- % adult mortality D + 14 (Sitophilus granarius; CT 160.4 gh.m^−3, 20° C.): 100%
- Total % NER (Sitophilus granarius; CT 160.4 gh.m^−3, 20° C.): 100%
- Total No. of insects emerged (Sitophilus granarius; CT 160.4 gh.m^−3, 20° C.): 0
- mortality for the majority of the stages (Sitophilus granarius; CT values greater than 50 gh.m^−3): 100%
- mortality for all the stages of development (Sitophilus granarius; product CT of 160 gh.m^−3): 100%
- pesticidal efficacy in terms of the product CT (useful CT) (Sitophilus granarius; wheat silo, 20° C.): about 100 ghm^−3
- pesticidal efficacy in terms of the product CT (useful CT) (Sitophilus orizae): about 100 ghm^−3
